Assay results published in article PMC9463526 (Journal of Pharmaceutical Analysis, 2022).
Like-named read-outs stand apart in the source and are kept apart here.

What was measured:
[1] = Equilibrium dialysis, fraction unbound in plasma; type: in vitro ADME, human; conditions: pH 7.4, 16 h equilibrium dialysis
Method: (§1) Equilibrium dialysis was employed to measure the fraction unbound of analytes in plasma, brain, and brain tumor tissue homogenates using 96-well DispoEquilibrium Dialyzer plates with a 10 kDa cut-off regenerated cellulose membrane. Dialysis was performed using 180 μL of human plasma or tissue homogenate against an equal volume of PBS (pH 7.4) in a dual-plate rotator (Harvard Apparatus, Holliston, MA, USA). Equilibrium time was initially optimized by analyzing samples after 2, 4, 6, 8, 16, and 24 h of dialysis at concentrations of 20 and 200 nM in human plasma and brain homogenate. The dialysates were collected and processed as described in Sections 2.3.2 and 2.3.3. The recovery of analytes was calculated as the ratio of analyte concentration after dialysis (sum of concentrations found in PBS and matrix fractions) to the total concentration to ensure the reliability and reproducibility of the assay. The experiments were repeated at least three times, and each sample in triplicate and average fraction unbound values were determined.
(§2) The fraction unbound in plasma (fu, plasma) and tissue homogenate (fu, hom) was evaluated as the analyte concentration ratio of post-dialysis PBS (cu) to post-dialysis plasma (cp, Eq. (1)) or homogenate (chom, Eq. (2)).(1) fu,plasma =cu/cp (2) fu,hom =cu/chom
Unbound drug levels in the actual plasma and brain tumor tissue were measured using dialysis for 16 h to reach equilibrium. The mean of fraction unbound values determined in five patient samples was calculated.

[2] = Equilibrium dialysis, fraction unbound in brain homogenate; type: in vitro ADME, human
Method: as §1, §2
The fraction unbound in the actual tissue (fu, tissue) was obtained by incorporating the unbound fraction in the tissue homogenate (fu, hom) and the dilution factor (Df) into Eq. (3).(3) fu,tissue = fu,hom/[Df - (Df - 1)fu,hom]

[3] = Levels in intraoperatively collected CSF of GBM patients; type: in vivo; conditions: human, po, five GBM patients, oral LY3214996 200 mg once daily and abemaciclib 150 mg twice daily for 5 days, intraoperative CSF
Method: Blank brain and clinical brain tumor tissue homogenates were prepared at 1:9 (m/V) ratio with PBS. The samples were homogenized at a speed of 6.00 m/s for 40 s for three cycles using a Bead Ruptor Elite homogenizer (Omni International, Kennesaw, GA, USA). Plasma was used as a surrogate matrix when preparing calibration curves for brain and brain tumor homogenates and CSF as well as for the PBS fraction after sample dialysis. To minimize matrix differences, all plasma samples were spiked with PBS, while all non-plasma samples were spiked with plasma. Extraction of the analyte and IS was facilitated by protein precipitation using methanol-containing IS precipitation solution. Samples (70 μL) spiked with PBS or plasma were precipitated using 400 μL of IS precipitation solution. After centrifugation at 12,000 r/min for 10 min at 4 °C, the supernatant was transferred for LC-MS/MS analysis.
The validated bioanalytical method was employed to investigate analytes pharmacokinetics in the plasma, brain tumor, and CSF in GBM patients (ClinicalTrials.gov identifier: NCT04391595). The protocol was reviewed and approved by the Institutional Review Board of the Barrow Neurological Institute, St. Joseph's Hospital and Medical Center (Phoenix, AZ, USA). All patients enrolled in the trial provided written informed consent. […] Blood, CSF, and GBM tissue (including gadolinium-contrast enhancing and non-enhancing regions) samples were obtained intra-operatively from each patient on the […] on the planned operation day. Blood was centrifuged at 4 °C and 3,000 r/min for 10 min; plasma was subsequently collected. Brain tumors were resected 7–9 h after the last dose was administered. Once resected, the tissue samples were rinsed with PBS, paper dried, and freshly frozen in liquid nitrogen. The samples were then stored at −80 °C in a freezer for later analysis.

[4] = Analyte stability in human plasma; type: physicochemical; conditions: for Freeze-thaw stability, Accuracy / Freeze-thaw stability, Mean concentration / Freeze-thaw stability, Difference: 3 cycles; for Freeze-thaw stability, Difference / Benchtop stability, Difference / Processed sample stability, Difference / Autosampler stability (5 °C), Difference / Long-term stability (−20 °C), Difference: vs freshly processed QC; for Benchtop stability, Accuracy / Benchtop stability, Mean concentration / Benchtop stability, Difference: 19 h; for Processed sample stability, Accuracy / Processed sample stability, Mean concentration / Processed sample stability, Difference: 23 h; for Autosampler stability (5 °C), Accuracy / Autosampler stability (5 °C), Mean concentration / Autosampler stability (5 °C), Difference: 112 h; for Long-term stability (−20 °C), Accuracy / Long-term stability (−20 °C), Mean concentration / Long-term stability (−20 °C), Difference: 27 days
Method: (§3) The stability of the analytes was studied under various storage and processing conditions. […] Short- and long-term stability studies of all analytes were conducted in human blank plasma and brain homogenate under several storage conditions. Analyte stability in biological matrices was analyzed using freshly prepared calibration standards and QC samples. The percentage difference between the stability and freshly processed QC was also assessed. Re-injection reproducibility was evaluated within the sample stability period in the autosampler. Analytes were considered stable if the accuracy at each level was ±15.0% of the nominal value. Additionally, the difference from corresponding comparison QC samples must be within ±15.0%.

[5] = Analyte stability in brain homogenate; type: physicochemical, human; conditions: for Freeze-thaw stability, Accuracy / Freeze-thaw stability, Mean concentration / Freeze-thaw stability, Difference: 3 cycles; for Freeze-thaw stability, Difference / Benchtop stability, Difference / Processed sample stability, Difference / Autosampler stability (5 °C), Difference / Long-term stability (−20 °C), Difference: vs freshly processed QC; for Benchtop stability, Accuracy / Benchtop stability, Mean concentration / Benchtop stability, Difference: 6 h; for Processed sample stability, Accuracy / Processed sample stability, Mean concentration / Processed sample stability, Difference: 22 h; for Autosampler stability (5 °C), Accuracy / Autosampler stability (5 °C), Mean concentration / Autosampler stability (5 °C), Difference: 96 h; for Long-term stability (−20 °C), Accuracy / Long-term stability (−20 °C), Mean concentration / Long-term stability (−20 °C), Difference: 39 days
Method: as §3

Compound: Cc1nc2c(F)cc(-c3nc(Nc4ccc(CN5CCNCC5)cn4)ncc3F)cc2n1C(C)C [M2]
- fraction unbound at 16 h ([1]; human, plasma of five GBM patients, read-out: Fraction unbound (fu), Plasma (patients)): 0.045
- fraction unbound at 16 h ([1]; pooled human plasma spiked at 20 and 200 nM, read-out: Fraction unbound (fu), Plasma (pooled)): 0.052
- fraction unbound at 16 h ([2]; pH 7.4, human brain homogenate spiked at 20 and 200 nM, 16 h equilibrium dialysis, read-out: Fraction unbound (fu), Brain): 0.008
- Plasma protein binding compared to binding to brain tissue components (ratio) ([2]; spiked pooled human plasma vs human brain homogenate): at least 6.5 fold
- concentration at 6 day (intra-operative) ([3]; read-out: Level in CSF (range)): 1.8 to 30.4 nM
- concentration at 6 day (intra-operative) ([3]; read-out: Median level in CSF): 11.7 nM
- Freeze-thaw stability, Accuracy ([4]; HQC 400.0 nM): 106%
- Freeze-thaw stability, Mean concentration ([4]; HQC 400.0 nM): 424.2 nM
- Freeze-thaw stability, Difference ([4]; HQC 400.0 nM): 5.8%
- Freeze-thaw stability, Accuracy ([4]; LQC 0.6 nM): 105.3%
- Freeze-thaw stability, Mean concentration ([4]; LQC 0.6 nM): 0.632 nM
- Freeze-thaw stability, Difference ([4]; LQC 0.6 nM): 5.8%
- Benchtop stability, Accuracy ([4]; HQC 400.0 nM): 103.8%
- Benchtop stability, Mean concentration ([4]; HQC 400.0 nM): 415.0 nM
- Benchtop stability, Difference ([4]; HQC 400.0 nM): 1.1%
- Benchtop stability, Accuracy ([4]; LQC 0.6 nM): 92.2%
- Benchtop stability, Mean concentration ([4]; LQC 0.6 nM): 0.553 nM
- Benchtop stability, Difference ([4]; LQC 0.6 nM): −1.7%
- Processed sample stability, Accuracy ([4]; HQC 400.0 nM): 100.6%
- Processed sample stability, Mean concentration ([4]; HQC 400.0 nM): 402.2 nM
- Processed sample stability, Difference ([4]; HQC 400.0 nM): 0.7%
- Processed sample stability, Accuracy ([4]; LQC 0.6 nM): 95.5%
- Processed sample stability, Mean concentration ([4]; LQC 0.6 nM): 0.573 nM
- Processed sample stability, Difference ([4]; LQC 0.6 nM): 3.6%
- Autosampler stability (5 °C), Accuracy ([4]; HQC 400.0 nM): 97.7%
- Autosampler stability (5 °C), Mean concentration ([4]; HQC 400.0 nM): 390.9 nM
- Autosampler stability (5 °C), Difference ([4]; HQC 400.0 nM): −0.2%
- Autosampler stability (5 °C), Accuracy ([4]; LQC 0.6 nM): 96.8%
- Autosampler stability (5 °C), Mean concentration ([4]; LQC 0.6 nM): 0.581 nM
- Autosampler stability (5 °C), Difference ([4]; LQC 0.6 nM): 4.8%
- Long-term stability (−20 °C), Accuracy ([4]; HQC 400.0 nM): 109.2%
- Long-term stability (−20 °C), Mean concentration ([4]; HQC 400.0 nM): 437.0 nM
- Long-term stability (−20 °C), Difference ([4]; HQC 400.0 nM): 5.6%
- Long-term stability (−20 °C), Accuracy ([4]; LQC 0.6 nM): 99.9%
- Long-term stability (−20 °C), Mean concentration ([4]; LQC 0.6 nM): 0.6 nM
- Long-term stability (−20 °C), Difference ([4]; LQC 0.6 nM): −3.1%
- Freeze-thaw stability, Accuracy ([5]; HQC 400.0 nM): 101.3%
- Freeze-thaw stability, Mean concentration ([5]; HQC 400.0 nM): 405.1 nM
- Freeze-thaw stability, Difference ([5]; HQC 400.0 nM): −6.8%
- Freeze-thaw stability, Accuracy ([5]; LQC 0.6 nM): 98.3%
- Freeze-thaw stability, Mean concentration ([5]; LQC 0.6 nM): 0.590 nM
- Freeze-thaw stability, Difference ([5]; LQC 0.6 nM): −9.4%
- Benchtop stability, Accuracy ([5]; HQC 400.0 nM): 97.0%
- Benchtop stability, Mean concentration ([5]; HQC 400.0 nM): 388.2 nM
- Benchtop stability, Difference ([5]; HQC 400.0 nM): −5.9%
- Benchtop stability, Accuracy ([5]; LQC 0.6 nM): 102.4%
- Benchtop stability, Mean concentration ([5]; LQC 0.6 nM): 0.614 nM
- Benchtop stability, Difference ([5]; LQC 0.6 nM): 6.9%
- Processed sample stability, Accuracy ([5]; HQC 400.0 nM): 100.2%
- Processed sample stability, Mean concentration ([5]; HQC 400.0 nM): 400.9 nM
- Processed sample stability, Difference ([5]; HQC 400.0 nM): −2.8%
- Processed sample stability, Accuracy ([5]; LQC 0.6 nM): 105.4%
- Processed sample stability, Mean concentration ([5]; LQC 0.6 nM): 0.632 nM
- Processed sample stability, Difference ([5]; LQC 0.6 nM): 10.0%
- Autosampler stability (5 °C), Accuracy ([5]; HQC 400.0 nM): 105.4%
- Autosampler stability (5 °C), Mean concentration ([5]; HQC 400.0 nM): 421.6 nM
- Autosampler stability (5 °C), Difference ([5]; HQC 400.0 nM): 6.2%
- Autosampler stability (5 °C), Accuracy ([5]; LQC 0.6 nM): 102.4%
- Autosampler stability (5 °C), Mean concentration ([5]; LQC 0.6 nM): 0.615 nM
- Autosampler stability (5 °C), Difference ([5]; LQC 0.6 nM): 13.5%
- Long-term stability (−20 °C), Accuracy ([5]; HQC 400.0 nM): 103.4%
- Long-term stability (−20 °C), Mean concentration ([5]; HQC 400.0 nM): 413.6 nM
- Long-term stability (−20 °C), Difference ([5]; HQC 400.0 nM): −4.8%
- Long-term stability (−20 °C), Accuracy ([5]; LQC 0.6 nM): 98.3%
- Long-term stability (−20 °C), Mean concentration ([5]; LQC 0.6 nM): 0.590 nM
- Long-term stability (−20 °C), Difference ([5]; LQC 0.6 nM): −9.5%
